The source made the active and inactive calls. The calls are words filed in the database; no cut-off is given here.

Data on 32 molecules can be found in ChEMBL document CHEMBL3797128, “N,N-Disubstituted thiourea and urea derivatives: design, synthesis, docking studies and biological evaluation against nitric oxide synthase” (Medchemcomm, 2016).

The target in series [1] is Nitric oxide synthase, inducible (Homo sapiens) (UniProt P35228). Put plainly: Inhibition of recombinant N-terminal His-tagged human iNOS expressed in Escherichia coli assessed as L-[3H]-citrulline formation at 1 mM using L-[3H]-arginine as substrate after 30 mins by liquid scintillation spectroscopy.
Target sequence in this assay (P35228 whole entry): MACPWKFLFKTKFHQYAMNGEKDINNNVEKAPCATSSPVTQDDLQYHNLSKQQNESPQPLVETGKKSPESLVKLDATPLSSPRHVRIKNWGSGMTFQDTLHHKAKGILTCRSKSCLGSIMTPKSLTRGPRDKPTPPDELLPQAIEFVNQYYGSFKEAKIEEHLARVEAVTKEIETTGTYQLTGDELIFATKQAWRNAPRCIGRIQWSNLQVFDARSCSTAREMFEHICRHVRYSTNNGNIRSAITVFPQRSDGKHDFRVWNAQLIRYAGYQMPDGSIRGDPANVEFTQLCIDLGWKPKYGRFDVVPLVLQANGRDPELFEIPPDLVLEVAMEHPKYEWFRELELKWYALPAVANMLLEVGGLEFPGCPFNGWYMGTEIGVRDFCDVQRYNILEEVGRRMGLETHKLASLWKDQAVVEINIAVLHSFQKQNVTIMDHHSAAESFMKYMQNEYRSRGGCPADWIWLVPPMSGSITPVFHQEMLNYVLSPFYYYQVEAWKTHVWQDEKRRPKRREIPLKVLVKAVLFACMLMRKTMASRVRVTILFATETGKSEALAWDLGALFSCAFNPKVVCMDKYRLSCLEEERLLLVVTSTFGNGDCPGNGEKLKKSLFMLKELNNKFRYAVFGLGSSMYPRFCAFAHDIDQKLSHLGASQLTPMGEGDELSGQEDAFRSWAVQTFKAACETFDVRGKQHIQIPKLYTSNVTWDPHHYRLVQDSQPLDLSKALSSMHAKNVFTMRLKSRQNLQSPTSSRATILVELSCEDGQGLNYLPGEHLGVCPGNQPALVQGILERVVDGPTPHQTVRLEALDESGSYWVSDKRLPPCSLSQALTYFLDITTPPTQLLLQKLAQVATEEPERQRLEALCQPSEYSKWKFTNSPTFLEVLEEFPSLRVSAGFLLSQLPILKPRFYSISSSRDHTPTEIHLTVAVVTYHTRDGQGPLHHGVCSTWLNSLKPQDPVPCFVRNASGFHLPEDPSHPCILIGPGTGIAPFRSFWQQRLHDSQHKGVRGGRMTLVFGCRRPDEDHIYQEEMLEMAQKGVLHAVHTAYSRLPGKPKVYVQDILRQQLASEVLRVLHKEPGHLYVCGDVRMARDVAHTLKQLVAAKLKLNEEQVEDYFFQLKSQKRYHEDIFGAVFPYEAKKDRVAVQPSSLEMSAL
The target in series [2] is Nitric oxide synthase 1 (Homo sapiens) (UniProt P29475). Put plainly: Inhibition of recombinant nNOS (unknown origin) assessed as L-[3H]-citrulline formation at 1 mM using L-[3H]-arginine as substrate after 30 mins by liquid scintillation spectroscopy.
Chain of Nitric oxide synthase 1 (Homo sapiens) (P29475 whole entry): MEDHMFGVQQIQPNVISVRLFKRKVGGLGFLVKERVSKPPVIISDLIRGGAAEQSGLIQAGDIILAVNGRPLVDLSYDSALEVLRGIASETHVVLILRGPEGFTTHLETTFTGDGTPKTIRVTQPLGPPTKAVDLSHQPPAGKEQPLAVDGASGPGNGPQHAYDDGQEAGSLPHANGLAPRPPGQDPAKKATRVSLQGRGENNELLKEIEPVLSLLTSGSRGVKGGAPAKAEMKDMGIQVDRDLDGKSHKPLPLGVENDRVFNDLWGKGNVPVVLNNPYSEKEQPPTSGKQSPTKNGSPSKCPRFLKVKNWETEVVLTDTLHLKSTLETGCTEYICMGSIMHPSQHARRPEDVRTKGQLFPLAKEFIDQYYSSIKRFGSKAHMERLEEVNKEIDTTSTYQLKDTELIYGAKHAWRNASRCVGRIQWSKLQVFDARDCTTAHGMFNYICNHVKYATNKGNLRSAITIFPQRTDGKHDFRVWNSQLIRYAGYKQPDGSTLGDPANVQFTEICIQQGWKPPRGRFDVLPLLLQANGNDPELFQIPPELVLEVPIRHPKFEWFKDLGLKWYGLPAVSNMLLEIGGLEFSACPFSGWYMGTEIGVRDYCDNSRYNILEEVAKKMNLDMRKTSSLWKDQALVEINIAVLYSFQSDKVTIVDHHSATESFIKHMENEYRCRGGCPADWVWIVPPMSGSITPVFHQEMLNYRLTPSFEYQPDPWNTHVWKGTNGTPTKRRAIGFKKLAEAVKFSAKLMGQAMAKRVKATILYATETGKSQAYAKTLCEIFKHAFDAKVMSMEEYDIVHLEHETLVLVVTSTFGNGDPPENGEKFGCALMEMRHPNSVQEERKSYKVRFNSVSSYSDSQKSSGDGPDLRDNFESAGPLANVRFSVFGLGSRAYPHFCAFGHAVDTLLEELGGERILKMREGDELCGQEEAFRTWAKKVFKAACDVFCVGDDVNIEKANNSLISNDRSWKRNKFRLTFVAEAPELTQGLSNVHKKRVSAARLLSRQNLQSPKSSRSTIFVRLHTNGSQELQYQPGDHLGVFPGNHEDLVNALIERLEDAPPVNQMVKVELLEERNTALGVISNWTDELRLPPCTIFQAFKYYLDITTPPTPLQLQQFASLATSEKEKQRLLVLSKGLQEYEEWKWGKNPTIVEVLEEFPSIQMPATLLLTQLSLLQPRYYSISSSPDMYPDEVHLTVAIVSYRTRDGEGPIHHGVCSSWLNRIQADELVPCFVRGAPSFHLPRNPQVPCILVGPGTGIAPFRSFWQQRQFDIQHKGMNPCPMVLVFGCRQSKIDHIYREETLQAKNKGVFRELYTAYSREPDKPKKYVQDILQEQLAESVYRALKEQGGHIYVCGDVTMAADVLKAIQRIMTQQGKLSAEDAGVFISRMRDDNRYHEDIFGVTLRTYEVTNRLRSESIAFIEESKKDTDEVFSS
The target in series [3] is Nitric oxide synthase, brain (Homo sapiens) (UniProt P29475). Put plainly: Inhibition of recombinant N-terminal His-tagged human nNOS expressed in Escherichia coli assessed as L-[3H]-citrulline formation using L-[3H]-arginine as substrate after 30 mins by liquid scintillation spectroscopy.
Chain of Nitric oxide synthase, brain (Homo sapiens) (P29475 whole entry, looked up): as the sequence (P29475 whole entry) above
Series [4] addresses Nitric oxide synthase, inducible (Homo sapiens) (UniProt P35228). Put plainly: Inhibition of recombinant iNOS (unknown origin) assessed as L-[3H]-citrulline formation using L-[3H]-arginine as substrate after 30 mins by liquid scintillation spectroscopy.
Target sequence in this assay (P35228 whole entry, looked up): as the sequence (P35228 whole entry) above
The target of series [5] is T1, Nitric oxide synthase 3 (Rattus norvegicus) (UniProt Q62600).
T1 sequence (whole entry): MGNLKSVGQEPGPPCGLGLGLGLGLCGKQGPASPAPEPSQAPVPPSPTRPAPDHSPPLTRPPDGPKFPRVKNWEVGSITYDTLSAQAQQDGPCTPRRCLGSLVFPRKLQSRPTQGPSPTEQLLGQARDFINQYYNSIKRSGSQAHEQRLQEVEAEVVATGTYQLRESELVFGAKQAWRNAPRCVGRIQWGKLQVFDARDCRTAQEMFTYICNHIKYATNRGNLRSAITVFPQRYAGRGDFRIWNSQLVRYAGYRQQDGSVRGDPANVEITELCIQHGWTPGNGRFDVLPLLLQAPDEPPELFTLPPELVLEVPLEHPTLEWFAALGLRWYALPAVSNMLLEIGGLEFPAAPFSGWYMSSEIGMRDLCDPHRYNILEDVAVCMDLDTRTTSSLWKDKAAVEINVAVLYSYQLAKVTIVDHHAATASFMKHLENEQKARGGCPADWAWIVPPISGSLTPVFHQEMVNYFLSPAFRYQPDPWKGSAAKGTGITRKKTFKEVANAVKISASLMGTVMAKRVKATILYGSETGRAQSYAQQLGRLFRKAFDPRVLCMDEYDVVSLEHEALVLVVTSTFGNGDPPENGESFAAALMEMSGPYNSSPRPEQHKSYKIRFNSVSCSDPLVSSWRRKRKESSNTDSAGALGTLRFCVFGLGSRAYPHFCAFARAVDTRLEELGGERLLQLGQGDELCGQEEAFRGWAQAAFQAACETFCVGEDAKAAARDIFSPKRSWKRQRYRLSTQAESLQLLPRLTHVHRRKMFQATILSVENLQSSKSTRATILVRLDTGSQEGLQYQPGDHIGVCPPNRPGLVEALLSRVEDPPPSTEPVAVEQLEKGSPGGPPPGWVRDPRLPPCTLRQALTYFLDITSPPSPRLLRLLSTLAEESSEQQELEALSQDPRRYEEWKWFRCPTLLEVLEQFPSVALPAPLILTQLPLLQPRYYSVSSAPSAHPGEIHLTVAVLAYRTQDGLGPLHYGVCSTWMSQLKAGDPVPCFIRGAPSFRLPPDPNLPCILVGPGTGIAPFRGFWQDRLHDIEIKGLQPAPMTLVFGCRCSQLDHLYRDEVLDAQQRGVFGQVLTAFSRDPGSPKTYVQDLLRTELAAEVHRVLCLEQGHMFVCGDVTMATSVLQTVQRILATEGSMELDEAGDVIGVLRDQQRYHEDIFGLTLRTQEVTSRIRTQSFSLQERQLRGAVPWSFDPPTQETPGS
Nature of the series: Inhibition of eNOS in Wistar rat aortic rings assessed as effect on acetylcholine evoked endothelial dependent relaxation of precontracted aortic rings at 100 umol/l after 30 mins.

Another series concerns HUVEC. Put plainly: Cytotoxicity against HUVEC cells assessed as reduction in cell viability at >1 mM after 30 mins by MTT assay. The class given is cell-based. The following applies: human, 0.5 h.
For series [6], the target named is T2, Nitric oxide synthase 3 (Homo sapiens) (UniProt P29474).
T2 sequence (whole entry): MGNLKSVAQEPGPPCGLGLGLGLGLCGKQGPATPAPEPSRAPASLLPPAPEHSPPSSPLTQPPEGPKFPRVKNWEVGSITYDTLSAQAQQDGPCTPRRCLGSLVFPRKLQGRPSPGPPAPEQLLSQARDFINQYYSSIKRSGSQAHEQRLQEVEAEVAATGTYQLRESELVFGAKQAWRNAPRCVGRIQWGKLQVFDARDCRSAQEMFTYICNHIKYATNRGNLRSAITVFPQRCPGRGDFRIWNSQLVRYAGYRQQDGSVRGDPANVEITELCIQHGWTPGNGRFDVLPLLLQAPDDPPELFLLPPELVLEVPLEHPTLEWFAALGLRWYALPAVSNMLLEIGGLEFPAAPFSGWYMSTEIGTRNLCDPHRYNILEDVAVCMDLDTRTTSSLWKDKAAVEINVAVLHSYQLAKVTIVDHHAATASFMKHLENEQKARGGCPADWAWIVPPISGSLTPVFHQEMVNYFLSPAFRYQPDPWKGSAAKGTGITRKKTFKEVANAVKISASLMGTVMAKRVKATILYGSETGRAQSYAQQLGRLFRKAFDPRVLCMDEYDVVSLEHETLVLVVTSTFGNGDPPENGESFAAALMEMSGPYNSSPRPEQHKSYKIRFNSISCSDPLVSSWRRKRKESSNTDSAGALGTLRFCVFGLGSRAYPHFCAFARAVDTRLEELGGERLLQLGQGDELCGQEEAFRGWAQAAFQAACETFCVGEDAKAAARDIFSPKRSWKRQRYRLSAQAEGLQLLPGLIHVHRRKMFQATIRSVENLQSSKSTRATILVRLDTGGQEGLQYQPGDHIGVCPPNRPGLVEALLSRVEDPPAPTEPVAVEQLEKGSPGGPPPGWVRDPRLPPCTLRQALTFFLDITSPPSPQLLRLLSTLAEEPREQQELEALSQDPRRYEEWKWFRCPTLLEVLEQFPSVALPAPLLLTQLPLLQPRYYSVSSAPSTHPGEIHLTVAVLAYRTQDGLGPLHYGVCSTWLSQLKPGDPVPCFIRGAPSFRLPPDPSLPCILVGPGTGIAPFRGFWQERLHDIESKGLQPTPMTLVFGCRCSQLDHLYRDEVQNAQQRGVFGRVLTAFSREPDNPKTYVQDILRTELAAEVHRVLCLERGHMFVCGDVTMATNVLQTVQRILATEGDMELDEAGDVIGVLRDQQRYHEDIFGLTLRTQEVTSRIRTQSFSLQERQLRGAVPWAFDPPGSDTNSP
Nature of the series: Inhibition of eNOS in HUVEC cells assessed as A23187 stimulated nitric oxide production at 100 umol/L preincubated for 30 mins using L-arginine as substrate for 5 mins followed A23187 addition measured after 30 mins by DAF2 dye based spectrofluorimetry. The class given is cell-based.

Series [7] has as its target T1, Nitric oxide synthase 3 (Rattus norvegicus). Nature of the series: Inhibition of eNOS in Wistar rat aortic rings assessed as suppression of acetylcholine evoked endothelial dependent relaxation of precontracted aortic rings at 100 umol/l after 30 mins.

A word on the inhibition: it is how much of the control response was suppressed. As for `COc1ccc(N)c(C(O)CCNC(=O)Nc2ccccc2)c1` (stereo unspecified), the inhibition in series [1] came to 12.3%; in series [2], 12.1%.
By IC50 is commonly meant the midpoint of a concentration-inhibition curve. On to `CNC(=S)NCCC(O)c1cc(OC)ccc1N` (stereo unspecified), for which the IC50 in series [3] stood at 130 µM; in series [4], 180 µM. Besides, the inhibition was 76.5% in series [1] and 80.5% in series [2]. Besides, the inhibition entry in series [5] and in series [6] was “inactive” in each case. The Activity with HUVEC was determined as 20%.
`CNC(=S)NCCC(O)c1ccccc1N` (stereo unspecified): the values for the IC50 in series [3] and in series [4] were 350 µM and greater than 1000 µM, respectively. Further, the figures for the inhibition in series [1] and in series [2] were 20.7% and 70.2%, respectively.
For the molecule `COc1ccc(N)c(C(=O)CCNC(=O)C2CC2)c1`, the inhibition in series [1] worked out at 2.66%.
Same read-out and setting: the value for `COc1ccc(N)c(C(=O)CCNC(=O)C2CCCCC2)c1` was 9.24%.
As for `CC(=O)NCCC(=O)c1cc(Cl)ccc1N`, the inhibition in series [1] turned out to be 19.7%.
On to `COc1ccc(N)c(C(=O)CCNC(=O)C2CCC2)c1`, for which the inhibition in series [1] turned out to be 0.01%.
For `CCNC(=O)NCCC(O)c1cc(Cl)ccc1N` (stereo unspecified), the inhibition came out at 33.9% in series [1] and 15.2% in series [2].
Regarding `CNC(=S)NCCC(O)c1cc(Cl)ccc1N` (stereo unspecified), the IC50 is 710 µM in series [3] and greater than 1000 µM in series [4]. Besides, the inhibition in series [1] was determined as 22.1%; in series [2], 70.5%.
For `Nc1ccc(Cl)cc1C(=O)CCNC(=O)c1ccccc1`, the inhibition in series [1] turned out to be 26.6%.
Consider `CCCNC(=O)NCCC(O)c1cc(OC)ccc1N` (stereo unspecified), for which the inhibition in series [1] turned out to be 14.7%; in series [2], 15.8%.
As to `CCCNC(=S)NCCC(O)c1cc(OC)ccc1N` (stereo unspecified), the inhibition stood at 25.4% in series [1] and 6.02% in series [2].
In the case of `CCCNC(=S)NCCC(O)c1ccccc1N` (stereo unspecified), the half-inhibitory concentration (IC50) in series [3] is 880 µM; in series [4], greater than 1000 µM. Further, the inhibition in series [1] is 31.1%; in series [2], 51.7%.
As for `CNC(=S)NCCC(=O)c1cc(OC)ccc1N`, the inhibition turned out to be 78.2% in series [1] and 46% in series [2].
Regarding `CCNC(=S)NCCC(O)c1ccccc1N` (stereo unspecified), the inhibition in series [1] was determined as 19.4%; in series [2], 44.8%.
With `CCNC(=O)NCCC(=O)c1cc(Cl)ccc1N`, the inhibition was 78.6% in series [1] and 9.86% in series [2].
In the case of `CCNC(=O)NCCC(O)c1ccccc1N` (stereo unspecified), the figures for the inhibition in series [1] and in series [2] were 18.3% and 7.81%, respectively.
Consider `COc1ccc(N)c(C(=O)CCNC(=O)c2ccccc2)c1`, for which the inhibition in series [1] amounted to 10.9%.
Turning to `Nc1ccccc1C(O)CCNC(=O)Nc1ccccc1` (stereo unspecified), the results for the inhibition in series [1] and in series [2] were 27.9% and 17.7%, respectively.
In the same order, the values of `CCCNC(=O)NCCC(O)c1ccccc1N` (stereo unspecified) are 19% and 7%.
Consider `CCNC(=S)NCCC(O)c1cc(Cl)ccc1N` (stereo unspecified), for which the figures for the IC50 in series [3] and in series [4] were 770 µM and 800 µM, respectively. In addition, the inhibition amounted to 60.4% in series [1] and 70.6% in series [2].
Turning to `Nc1ccc(Cl)cc1C(O)CCNC(=O)Nc1ccccc1` (stereo unspecified), the inhibition in series [1] worked out at 3.11%; in series [2], 38.6%.
With `CCCCC(=O)NCCC(=O)c1cc(OC)ccc1N`, the inhibition in series [1] was 14.1%.
On to `CCCC(=O)NCCC(=O)c1cc(OC)ccc1N`, for which the inhibition in series [1] came out at 7.35%.
As to `COc1ccc(N)c(C(=O)CCNC(=O)C2CCCC2)c1`, in series [1], the inhibition stood at 0.61%.
On the same count and under the same terms, the value for `Nc1ccc(Cl)cc1C(=O)CCNC(=O)C1CC1` was 5.37%; that for `COc1ccc(N)c(C(=O)CCNC(C)=O)c1` was 30.7%.
As for `CCCNC(=O)NCCC(O)c1cc(Cl)ccc1N` (stereo unspecified), the values for the inhibition in series [1] and in series [2] were 19.6% and 23.8%, respectively.
In the case of `CCC(=O)NCCC(=O)c1cc(OC)ccc1N`, the inhibition in series [1] worked out at 0.24%.
As for `CCCNC(=S)NCCC(O)c1cc(Cl)ccc1N` (stereo unspecified), the IC50 is greater than 1000 µM in series [3] and 860 µM in series [4]. In addition, the inhibition in series [1] is 55%; in series [2], 32.4%.
With `CCNC(=O)NCCC(O)c1cc(OC)ccc1N` (stereo unspecified), the inhibition amounted to 26.6% in series [1] and 43% in series [2].
For `COC(=O)[C@@H](N)CCCNC(=N)N[N+](=O)[O-]`, in series [7], the inhibition result is “Active”.
